Test results reported in paper PMC7158045 (BMC Plant Biology, 2020).
Structures can show the parent of a compound that is named as a salt.

Tests used:
Test in all cases: biochemical
ZmDRIK1-R187-P492 = biological target: T1, ZmDRIK1-R187-P492 (Zea mays, UniProt C0P4K9); settings: read-out: dTm B, DSF, Boltzmann fit, 0.1% DMSO
T1 construct: kinase domain, R187-P492
T1 sequence (C0P4K9 1-514): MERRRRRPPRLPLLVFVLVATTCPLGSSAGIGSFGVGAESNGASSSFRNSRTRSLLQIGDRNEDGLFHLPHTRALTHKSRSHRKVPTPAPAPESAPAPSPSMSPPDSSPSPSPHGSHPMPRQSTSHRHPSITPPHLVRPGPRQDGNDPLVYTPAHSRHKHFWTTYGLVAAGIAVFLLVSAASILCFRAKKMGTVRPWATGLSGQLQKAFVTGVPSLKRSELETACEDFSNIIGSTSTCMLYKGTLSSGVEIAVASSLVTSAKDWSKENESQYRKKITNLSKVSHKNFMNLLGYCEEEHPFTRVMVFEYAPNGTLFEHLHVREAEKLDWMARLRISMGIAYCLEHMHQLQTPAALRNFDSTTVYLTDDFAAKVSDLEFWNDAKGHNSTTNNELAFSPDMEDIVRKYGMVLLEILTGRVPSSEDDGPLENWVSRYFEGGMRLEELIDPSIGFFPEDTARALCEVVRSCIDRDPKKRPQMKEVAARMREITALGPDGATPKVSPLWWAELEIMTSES

ZmDRIK1-K217-S514 = biological target: T2, ZmDRIK1-K217-S514 (Zea mays, UniProt C0P4K9); settings: read-out: dTm B, sheet ZmDRIK1-K217-S514;; DSF, Boltzmann fit, 0.1% DMSO
T2 construct: kinase domain, K217-S514
T2 sequence (C0P4K9 1-514): T1 sequence (C0P4K9 1-514)

[1] = biological target: T3, ZmDRIK1 (DROUGHT RESPONSIVE INACTIVE KINASE 1), kinase domain (Zea mays, UniProt C0P4K9); settings: read-out: dTm B, sheet ZmDRIK1-R187-S514;; DSF, Boltzmann fit, 0.1% DMSO
T3 construct: gene ZEAMMB73_Zm00001d028770; ZmDRIK1-KD R187-S514 (kinase domain)
T3 sequence (C0P4K9 187-514): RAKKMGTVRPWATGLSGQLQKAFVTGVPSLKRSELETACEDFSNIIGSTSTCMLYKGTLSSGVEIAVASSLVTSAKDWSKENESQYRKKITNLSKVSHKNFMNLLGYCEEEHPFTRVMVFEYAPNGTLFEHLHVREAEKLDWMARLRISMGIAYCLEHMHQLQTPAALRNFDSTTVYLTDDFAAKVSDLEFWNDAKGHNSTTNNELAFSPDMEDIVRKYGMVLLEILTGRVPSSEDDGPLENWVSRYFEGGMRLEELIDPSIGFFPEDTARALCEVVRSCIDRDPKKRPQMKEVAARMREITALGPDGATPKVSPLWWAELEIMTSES

ZmDRIK1-K217-P492 = biological target: T4, ZmDRIK1-K217-P492 (Zea mays, UniProt C0P4K9); settings: read-out: dTm B, sheet ZmDRIK1-K217-P492;; DSF, Boltzmann fit, 0.1% DMSO
T4 construct: kinase domain, K217-P492
T4 sequence (C0P4K9 1-514): T1 sequence (C0P4K9 1-514)

ΔTm at 10 µM (ZmDRIK1-R187-P492) [°C] | ΔTm at 10 µM (ZmDRIK1-K217-S514) [°C] | ΔTm at 10 µM [1] [°C] | ΔTm at 10 µM (ZmDRIK1-K217-P492) [°C] | Structure (SMILES)
0.313 | -0.183 | -1.14 | -0.775 | Cc1nc(N)sc1-c1ccnc(Nc2ccc(N3CCOCC3)cc2)n1 [CYC116]
-1.55 | -0.729 | -10.9 | -0.472 | C=CC(=O)Nc1cccc(Nc2nc(Nc3ccc(Oc4ccnc(C(=O)NC)c4)cc3)ncc2F)c1 [CNX-774]
-0.167 | -0.261 | -0.804 | -0.323 | NC(=O)Nc1cc(-c2cccc(F)c2)sc1C(=O)N[C@H]1CCCNC1 [AZD7762]
0.579 | 1.35 | -25.6 | -0.527 | CC(C)(O)CC(=O)NCCn1ccc2ncnc(Nc3ccc(Oc4cccc(C(F)(F)F)c4)c(Cl)c3)c21 [TAK-285]
-0.306 | 0.341 | -0.178 | -0.0461 | O=C1Nc2ccc(I)cc2/C1=C/c1cc(Br)c(O)c(Br)c1 [GW5074]
-0.353 | -0.39 | -1.56 | -0.83 | CN(C)c1ccc(-c2nc3ncc(Cl)c(N4CCN(CC(=O)Nc5nccs5)CC4)c3[nH]2)cc1 [CCT129202]
-0.527 | -0.628 | -0.881 | -1.43 | Cc1[nH]c2ccccc2c1C1=C(NCCc2ccc(F)cc2)C(=O)N(C)C1=O [IM-12]
-0.157 | -0.286 | -1.09 | -0.814 | Cc1cc(CN2CCN(c3c(Br)cnc4nc(-c5ccc(N6CCN(C)CC6)cc5)[nH]c34)CC2)no1 [CCT137690]
-1.23 | -1.39 | -0.711 | -1.46 | O=C(NCCCNc1nc(Nc2cccc(NC(=O)N3CCCC3)c2)ncc1I)c1cccs1 [BX-795]
-0.341 | -0.583 | -0.958 | -1.36 | O=C(O)c1ccc(Nc2ncc3c(n2)-c2ccc(Cl)cc2C(c2c(F)cccc2F)=NC3)cc1 [MLN8054]
-0.26 | -0.669 | -0.715 | -0.928 | CS(=O)(=O)c1ccc(-c2cnc(N)c(C(=O)Nc3ccccc3)n2)cc1 [VE-821]
-0.136 | -0.228 | -0.531 | -1.08 | COc1ccc(-c2nc(N3CCOCC3)c3sc(CN(C)c4ncc(C(=O)NO)cn4)cc3n2)cn1 [CUDC-907]
-0.0449 | -0.397 | -0.639 | -1.04 | OCCn1cc(-c2ccc3c(c2)CC/C3=N\O)c(-c2ccncc2)n1 [GDC-0879]
-15.4 | -15 | -20.6 | -15.1 | Oc1ccc2ccccc2c1SSc1c(O)ccc2ccccc12 [IPA-3]
1.32 | 0.698 | -0.365 | 0.368 | C=CC(=O)Nc1cccc(Nc2nc(Nc3ccc(OCCOC)cc3)ncc2F)c1 [AVL-292]

Continued, compound first:

Structure (SMILES) | ΔTm at 10 µM (ZmDRIK1-R187-P492) [°C] | ΔTm at 10 µM (ZmDRIK1-K217-S514) [°C] | ΔTm at 10 µM [1] [°C] | ΔTm at 10 µM (ZmDRIK1-K217-P492) [°C]
CN(C)CCCn1cc(C2=C(c3c[nH]c4ccccc34)C(=O)NC2=O)c2ccccc21 [GF109203X] | -0.337 | -0.324 | -0.748 | -1.16
Cc1cc(NC(=O)c2cccc(NC(=O)/C=C/CN(C)C)c2)ccc1Nc1nccc(-c2cccnc2)n1 [JNK-IN-8] | -0.326 | -0.306 | -0.726 | -1.16
Cc1c(CN2CCN(C(=O)[C@H](C)O)CC2)sc2c(N3CCOCC3)nc(-c3cnc(N)nc3)nc12 [GDC-0980 (RG7422)] | -0.177 | -0.304 | -0.737 | -1.16
CO[C@H]1C[C@@H]2CC[C@@H](C)[C@@](O)(O2)C(=O)C(=O)N2CCCC[C@H]2C(=O)O[C@H]([C@H](C)C[C@@H]2CC[C@H](n3cnnn3)[C@H](OC)C2)CC(=O)[C@H](C)/C=C(\C)[C@@H](O)[C@@H](OC)C(=O)[C@H](C)C[C@H](C)/C=C/C=C/C=C/1C [Zotarolimus(ABT-578)] | -0.286 | -0.269 | -0.396 | -0.534
CCOc1cc(N2CCC(O)CC2)ccc1Nc1ncc2c(n1)N(C)c1ccccc1C(=O)N2C [XMD8-92] | -0.38 | -0.663 | -0.666 | -1.16
CCN1CCN(Cc2ccc(-c3cc4c(N[C@H](C)c5ccccc5)ncnc4[nH]3)cc2)CC1 [AEE788 (NVP-AEE788)] | -0.159 | -0.297 | -0.878 | -0.494
NC(=O)c1ncn([C@@H]2O[C@H](CO)[C@@H](O)[C@H]2O)c1N [Acadesine] | -0.0339 | -0.387 | -0.564 | -0.691
C[C@H](Nc1ncnc2nc[nH]c12)c1cc2cccc(Cl)c2c(=O)n1-c1ccccc1 [IPI-145 (INK1197)] | -0.495 | -0.374 | -1.16 | -0.86
CC(C)N(CCC(=O)c1ccc2ccccc2c1)Cc1ccccc1 [ZM 39923 HCl] | -0.636 | -0.827 | -1.58 | -2.03
O=C(/C=C/c1ccc(O)c(O)c1)c1ccc(O)cc1O [Butein] | 0.882 | 0.982 | 0.686 | 1.78
CN1CCN(CCOc2cc(OC3CCOCC3)c3c(Nc4c(Cl)ccc5c4OCO5)ncnc3c2)CC1 [Saracatinib (AZD0530)] | -0.196 | -0.253 | -0.646 | -1.11
COc1cc2ncnc(Nc3cccc(Cl)c3)c2cc1OC [AG-1478 (Tyrphostin AG-1478)] | -0.424 | -0.388 | -0.676 | -0.243
O=C1NC(=O)/C(=C/c2ccc(-c3ccc(F)cc3O)o2)S1 [AS-252424] | 0.884 | 1.39 | 0.389 | 1.37
COc1cc(Nc2ncc(F)c(Nc3ccc4c(n3)N(COP(=O)(O)O)C(=O)C(C)(C)O4)n2)cc(OC)c1OC [Fostamatinib (R788)] | -0.222 | -0.314 | -0.579 | -0.792
Cc1cn(-c2cc(NC(=O)c3ccc(C)c(Nc4nccc(-c5cccnc5)n4)c3)cc(C(F)(F)F)c2)cn1 [Nilotinib (AMN-107)] | -5.14 | -2.84 | -19.8 | -9.25
Cn1cc(C2=C(c3cn(CCCSC(=N)N)c4ccccc34)C(=O)NC2=O)c2ccccc21 [Ro 31-8220 Mesylate] | -0.197 | -0.33 | -0.819 | -1.24
C[C@@H]1COCCN1c1cc(C2(S(C)(=O)=O)CC2)nc(-c2cccc3[nH]ccc23)n1 [AZ20] | -0.0341 | -0.493 | -0.953 | -0.913
Nc1nc(N)c2nc(-c3cccc(O)c3)c(-c3cccc(O)c3)nc2n1 [TG100-115] | -0.347 | -0.395 | -0.852 | -0.6
COc1ccc(CNC(=O)Nc2ncc([N+](=O)[O-])s2)cc1 [AR-A014418] | -0.199 | -0.49 | -1.03 | -0.984
Cc1ccc(-n2nc(C(C)(C)C)cc2NC(=O)Nc2ccc(OCCN3CCOCC3)c3ccccc23)cc1 [BIRB 796 (Doramapimod)] | -0.248 | -0.405 | 0.000298 | -0.873
Cc1cc(Nc2cc(N3CCN(C)CC3)nc(Sc3ccc(NC(=O)C4CC4)cc3)n2)n[nH]1 [VX-680 (Tozasertib)] | -0.37 | -0.694 | -0.713 | -1.16
Cc1[nH]c(/C=C2\C(=O)Nc3ccccc32)c(C)c1CCC(=O)O [TSU-68 (SU6668)] | -0.199 | -0.226 | -0.64 | -1.14
